From US20250332173A1, “COMPOUNDS AND METHODS FOR MODULATING NUCLEIC ACID SPLICING” (REMIX THERAPEUTICS INC., priority 2021, published 2025)
Where a name gives a salt, the structure may show the parent alone.

Tests used:
[1] = system: Target C; experiment: RT-qPCR splicing assay panel, Target C canonical junction (CJ) mRNA; type: cell-based, human; details: Homo sapiens; Table 5 panel; canonical junction qPCR; compound concentration having 50% response in CJ decrease; read-out: Target C IC50 (decrease in CJ mRNA levels)
In short: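 Canonical-junction transcript levels in compound-treated A673 or K562 cells (24 h, up to 10 uM final) were determined from lysates by RT-qPCR with housekeeping-gene normalization.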

[2] = system: HTT; experiment: HiBiT protein abundance assay, HTT HiBiT K562 cell line; type: cell-based, human; details: HiBiT K562 cell line, 24 hours, top dose 10 μM; read-out: Effect on protein abundance, HTT (IC50 category)
In short: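 Endogenous targets in K562 knock-in lines carried a HiBiT tag and were treated for 24 h at 37 °C with 10-point 3-fold dilutions (top 10 μM final, DMSO ≤0.25%). Abundance was read as lytic Nano-Glo HiBiT luminescence. IC50 came from a four-parameter logistic fit of normalized response.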

[3] = system: K562 (human chronic myelogenous leukemia) cells; experiment: Cell Titer Glo 2.0 cell viability assay; type: cell-based; details: Homo sapiens, K562, 72 h, K562 cells, 72 hours, Cell Titer Glo 2.0; read-out: K562 GI50
Protocol: Compounds described herein were screened for toxicity in K562 (human chronic myelogenous leukemia) cells using a Cell Titer Glo 2.0 assay.
Cells were plated at 500 cells/well (K562 cells) in 45 μL of IMDM supplemented with 1000 FBS in a 384-well opaque plate. Wells containing only medium were used as a blank control. Test compounds (e.g., compounds ofFormula (I), (II), (III), (IV), (V), (VI), (VII), (VIII), and (IX)) were first serially diluted in DMSO then diluted 1:100 with IMDM+10% FBS. The final concentration of DMSO was 0.1% in each well. The cells were incubated for 72 hours at 37° C. and 500 CO2 before assaying with Cell Titer Glo 2.0 reagent.

[4] = system: Target C; experiment: HiBiT protein abundance assay, Target C (Promega Nano-Glo HiBiT Lytic Detection System, knock-in K562 cell line); type: cell-based, human; details: Homo sapiens, K562, 24 h, HiBiT K562 cell line, 24 hours, top dose 10 μM; read-out: Effect on protein abundance, Target C (IC50 category)
In short: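 HiBiT knock-in K562 cells (10,000/well) were treated for 24 h at 37 °C with a 10-point 3-fold dilution series, top final concentration 10 μM, DMSO ≤0.25%. Lytic HiBiT luminescence was read, normalized to unmodified K562 and DMSO-treated controls, and IC50 was interpolated from a four-parameter logistic fit.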

Row | IC50 [1] [nM] | IC50 [2] [nM] | GI50 [3] [nM] | IC50 [4] [nM] | SMILES
1 | 1000 to 10000 | 100 to 1000 | 1000 to 10000 | 1000 to 10000 | Cc1cn2nc(-c3ccc4c(=O)n(C5CCNCC5)ccc4c3)cc(CC#N)c2n1 [Compound 520, 2-[2-methyl-6-[1-oxo-2-(4-piperidyl)-6-isoquinolyl]imidazo[1,2-b]pyridazin-8-yl]acetonitrile]
2 | > 10000 | > 10000 | 1000 to 10000 | > 10000 | Cc1cn2cc(-c3cc(F)c4c(=O)n([C@H]5CNC[C@H]5C)ccc4c3)cc(F)c2n1 [Compound 652, 8-fluoro-6-(8-fluoro-2-methyl-imidazo[1,2-a]pyridin-6-yl)-2-[(3R,4R)-4-methylpyrrolidin-3-yl]isoquinolin-1-one]
3 | > 10000 | > 10000 | 1000 to 10000 | > 10000 | Cc1cn2cc(-c3cc(F)c4c(=O)n([C@H]5CNC[C@@H]5F)ccc4c3)cc(F)c2n1 [Compound 644]
4 | 1000 to 10000 | < 100 | 100 to 1000 | 100 to 1000 | Cc1cn2cc(-c3cc(F)c4c(=O)n(C5CCNC6(CC6)C5)ncc4c3)cc(Cl)c2n1 (stereo not shown) [Compound 556]
5 | 100 to 1000 | < 100 | 100 to 1000 | < 100 | Cc1cn2nc(-c3ccc4c(=O)n(C5CCNCC5)cnc4c3)cc(C)c2n1 [Compound 181]
6 | 100 to 1000 | 1000 to 10000 | 1000 to 10000 | 1000 to 10000 | Cc1cn2cc(-c3cc(F)c4c(=O)n(C5CCNCC5)cnc4c3)cc(C#N)c2n1 [Compound 588]
7 | < 100 | < 100 | < 100 | < 100 | Cc1cn2nc(-c3cc(O)c4c(=O)n(C5CCNCC5)ncc4c3)cc(C)c2n1 [Compound 541]
8 | < 100 | < 100 | < 100 | < 100 | Cc1cn2nc(-c3cc(F)c4c(=O)n(C5CCNCC5)ncc4c3)cc(C)c2n1 [Compound 540]
9 | > 10000 | 1000 to 10000 | 1000 to 10000 | > 10000 | Cc1cn2nc(-c3cc(F)c4c(=O)n(C5CCNC5)cnc4c3)cc(C)c2n1 (stereo not shown) [Compound 589, 7-{2,8-dimethylimidazo[1,2-b]pyridazin-6-yl}-5-fluoro-3-(pyrrolidin-3-yl)quinazolin-4-one]
10 | 100 to 1000 | < 100 | < 100 | 100 to 1000 | Cc1cn2cc(-c3cc(F)c4c(=O)n(C5CC(C)NC(C)C5)ccc4c3)cc(F)c2n1 (stereo not shown) [Compound 651]
11 | > 10000 | 1000 to 10000 | 1000 to 10000 | 1000 to 10000 | Cc1cn2nc(-c3ccc4c(=O)n(C5CCNCC5)ccc4c3)cc(C(N)=O)c2n1 [Compound 523, 2-methyl-6-[1-oxo-2-(4-piperidyl)-6-isoquinolyl]imidazo[1,2-b]pyridazine-8-carboxamide]

The remaining lines, values behind:

Row | SMILES | IC50 [1] [nM] | IC50 [2] [nM] | GI50 [3] [nM] | IC50 [4] [nM]
12 | CC(=O)Nc1cc(-c2cc(C)c3nc(C)cn3n2)cc2ccn([C@@H]3CCNC3)c(=O)c12 [Compound 650, N-[6-(2,8-dimethylimidazo[1,2-b]pyridazin-6-yl)-1-oxo-2-[(3R)-pyrrolidin-3-yl]-8-isoquinolyl]acetamide] | > 10000 | > 10000 | 1000 to 10000 | > 10000
13 | CC(=O)Nc1cc(-c2cc(C)c3nc(C)cn3n2)cc2ccn([C@H]3CCNC3)c(=O)c12 [Compound 649, N-[6-(2,8-dimethylimidazo[1,2-b]pyridazin-6-yl)-1-oxo-2-[(3S)-pyrrolidin-3-yl]-8-isoquinolyl]acetamide] | > 10000 | 1000 to 10000 | 1000 to 10000 | 1000 to 10000
14 | Cc1cn2nc(-c3ccc4c(=O)n(C5CCNCC5)ccc4c3)cc(-n3ccccc3=O)c2n1 [Compound 552, 6-[2-methyl-8-(2-oxo-1-pyridyl)imidazo[1,2-b]pyridazin-6-yl]-2-(4-piperidyl)isoquinolin-1-one] | > 10000 | > 10000 | > 10000 | > 10000
15 | Cn1cc2c(=O)n(-c3ccc4c(=O)n(C5CCNCC5)ccc4c3)ccc2n1 [Compound 530, 6-{2-methyl-4-oxopyrazolo[4,3-c]pyridin-5-yl}-2-(piperidin-4-yl)isoquinolin-1-one] | > 10000 | > 10000 | > 10000 | > 10000
16 | Cc1cc(-c2ccc3c(=O)n(N4CCN(C)CC4)cnc3c2)cc2cn(C)nc12 [Compound 175] | > 10000 | 1000 to 10000 | 1000 to 10000 | > 10000
17 | Cc1cn2nc(-c3cc(F)c4c(=O)n([C@H]5CCN(C)C6(CC6)C5)ncc4c3)cc(C)c2n1 [Compound 638] | < 100 | < 100 | 100 to 1000 | < 100
18 | Cn1ccc2nn(-c3ccc4c(=O)n(C5CCNCC5)ccc4c3)cc2c1=O [Compound 522, 6-{5-methyl-4-oxopyrazolo[4,3-c]pyridin-2-yl}-2-(piperidin-4-yl)isoquinolin-1-one] | > 10000 | > 10000 | 1000 to 10000 | > 10000
19 | CNC(=O)c1cc(-c2ccc3c(=O)n(C4CCNCC4)ccc3c2)nn2cc(C)nc12 [Compound 518, N, 2-dimethyl-6-[1-oxo-2-(4-piperidyl)-6-isoquinolyl]imidazo[1,2-b]pyridazine-8-carboxamide] | > 10000 | 1000 to 10000 | 1000 to 10000 | 1000 to 10000
20 | Cc1cn2nc(-c3ccc4c(=O)n(C5CCNCC5)ccc4c3)cc(Cc3nnc[nH]3)c2n1 [Compound 535, 6-[2-methyl-8-(4H-1,2,4-triazol-3-ylmethyl)imidazo[1,2-b]pyridazin-6-yl]-2-(4-piperidyl) isoquinolin-1-one] | > 10000 | 1000 to 10000 | 1000 to 10000 | 1000 to 10000
21 | Cc1nc2c(C)cc(-c3ccc4c(=O)n(C5CCNC6(CC6)C5)ncc4c3)cc2o1 (stereo not shown) [Compound 513] | 1000 to 10000 | 100 to 1000 | 1000 to 10000 | 1000 to 10000
22 | CCN1CCC(n2ncc3cc(-c4cc(C)c5nc(C)cn5n4)cc(F)c3c2=O)CC1 [Compound 537] | 100 to 1000 | < 100 | 100 to 1000 | 100 to 1000
23 | CNC(=O)Cc1cc(-c2ccc3c(=O)n(C4CCNCC4)ccc3c2)nn2cc(C)nc12 [Compound 534, N-methyl-2-[2-methyl-6-[1-oxo-2-(4-piperidyl)-6-isoquinolyl]imidazo[1,2-b]pyridazin-8-yl]acetamide] | 1000 to 10000 | 1000 to 10000 | 1000 to 10000 | 1000 to 10000
24 | COC(=O)Cc1cc(-c2ccc3c(=O)n(C4CCNCC4)ccc3c2)nn2cc(C)nc12 [Compound 527] | 1000 to 10000 | 100 to 1000 | 1000 to 10000 | 100 to 1000
25 | Cc1cn2nc(-c3ccc4c(=O)n(C5CCNCC5)ccc4c3)cc(Oc3ccc(F)cc3)c2n1 [Compound 546, 6-[8-(4-fluorophenoxy)-2-methyl-imidazo[1,2-b]pyridazin-6-yl]-2-(4-piperidyl) isoquinolin-1-one; hydrochloride] | < 100 | < 100 | < 100 | < 100
26 | Cc1cn2nc(-c3cc(F)c4c(=O)n([C@@H]5CCN(C)C6(CC6)C5)ncc4c3)cc(C)c2n1 [Compound 637] | < 100 | < 100 | 100 to 1000 | < 100
27 | CNc1cc(-c2cc(C)c3nc(C)cn3n2)cc2ccn([C@@H]3CCNC3)c(=O)c12 [Compound 648, 6-(2,8-dimethylimidazo[1,2-b]pyridazin-6-yl)-8-(methylamino)-2-[(3R)-pyrrolidin-3-yl]isoquinolin-1-one] | > 10000 | > 10000 | 1000 to 10000 | > 10000
28 | Cc1cn2nc(-c3ccc4c(=O)n(C5CCNCC5)ncc4c3)cc(Oc3ccccc3)c2n1 [Compound 549, 6-(2-methyl-8-phenoxy-imidazo[1,2-b]pyridazin-6-yl)-2-(4-piperidyl) phthalazin-1-one] | 100 to 1000 | < 100 | 100 to 1000 | < 100
29 | Cc1cn2nc(-c3cc(F)c4c(=O)n(C5CCN(C)CC5)ncc4c3)cc(C)c2n1 [Compound 539] | 100 to 1000 | < 100 | 100 to 1000 | < 100
30 | Cc1cn2nc(-c3ccc4c(=O)n(C5CCNCC5)ccc4c3)cc(CC(N)=O)c2n1 [Compound 528, 2-(2-methyl-6-(1-oxo-2-(piperidin-4-yl)-1,2-dihydroisoquinolin-6-yl)imidazo[1,2-b]pyridazin-8-yl) acetamide] | 1000 to 10000 | 100 to 1000 | 1000 to 10000 | 100 to 1000
31 | Cn1ccc2c(cnn2-c2ccc3c(=O)n(C4CCNCC4)ccc3c2)c1=O [Compound 521] | 1000 to 10000 | 1000 to 10000 | 1000 to 10000 | 1000 to 10000
